Structures are written as SMILES. “Also recorded” adds a separate entry of the source. Like-named read-outs stand apart in the source and are kept apart here.

The subject of series [1] is tumor. To be noted: cited from earlier work; for anti-tumor efficacy as single agent: used alone; for efficacy of antitumor vaccines when used as adjuvant: with vaccines.
In series [2] the test system is C26GM colon carcinoma. The series is described as follows: C26GM tumor outgrowth with sildenafil and anti-CD8 depleting antibody. In kind it is in vivo, mice (BALB/c).
The test system of series [3] is C26GM colon carcinoma. As to the kind of experiment: Adoptive cell transfer (ACT) with sildenafil in C26GM-bearing mice, tumor size. In kind it is in vivo, mice (BALB/c).
Series [4] deals with CT26-WT or C26GM colon carcinoma. As to the kind of experiment: Tumor outgrowth after s.c. challenge with CT26-WT or C26GM. In kind it is in vivo, mice (BALB/c). To be noted: for anti-tumor efficacy in immune deficient Rag-/- mice: BALB/c Rag-/- mice; for tumor outgrowth: Balb/c mice, CT26-WT or C26GM, sildenafil 20 mg/kg/day, tadalafil 2 mg/kg/day ip, treatment alone.
Series [5] deals with purified CD11b+ MSCs. As to the kind of experiment: IL4Rα expression on purified CD11b+ MSCs cultured with sildenafil. The note with it: for IL4Rα expression in cultured MSCs: sildenafil 50 μg/ml in culture; for IFN-γ mediated IL4Rα up-regulation in cultured MSCs: sildenafil 50 μg/ml, IFN-γ 25 ng/ml added on day 2. Format: cell-based, mice.
In series [6] the test system is tumor-associated MSCs (CD11b+ cells). As to the kind of experiment: In vivo sildenafil treatment of tumor-bearing mice; analysis of purified tumor-associated CD11b+ MSCs (cGMP EIA, Western blot, NO, arginase, IL4Rα flow cytometry). The arrangement: species or system mice (BALB/c). To be noted: sildenafil 20 mg/kg/day in vivo.
Series [7] concerns tumor infiltrating CD8+ / CD4+ T cells. The series is described as follows: Tumor-infiltrating lymphocyte number and activation in sildenafil-treated tumor-bearing mice. Format: in vivo, mice (BALB/c).
The subject of series [8] is PBLs (CD4+ and CD8+ T cells). As to the kind of experiment: Proliferation assay of PBLs stimulated with anti-CD3/CD28 antibody-coated beads. Format: cell-based, human.
Series [9] has as its system tumor-derived CD11b+ MSCs / antigen-specific T cells. The series is described as follows: MSC suppressive assay (CFSE dilution of antigen-specific T cells admixed with CD11b+ MSCs). In kind it is cell-based, mice. The note with it: sildenafil 50 μg/ml.
The conditions of series [10]: human, in vivo, cited from earlier work.

For `CC(=O)Oc1ccccc1C(=O)Oc1cccc(CO[N+](=O)[O-])c1` [nitroaspirin], the figures for the “anti-tumor efficacy as single agent” value in series [1] and in series [1] (listed as nitro-aspirin) were “no anti-tumor efficacy when used alone” and “ineffective as a single agent”, respectively. For the same compound, the “efficacy of antitumor vaccines when used as adjuvant” value in [1] is “enhanced the preventive and therapeutic efficacy of antitumor vaccines”; in series [1] (listed as nitro-aspirin) it was “augmented the anti-tumor efficacy of vaccines on established tumors”.
As to `CCCc1nn(C)c2c(=O)[nH]c(-c3cc(S(=O)(=O)N4CCN(C)CC4)ccc3OCC)nc12` [sildenafil], the “tumor outgrowth effect of sildenafil with anti-CD8 depleting antibody” value in series [2] (anti-CD8 clone 2.43 on days 0, 2, 4, 6) was “completely abolished by CD8^+ depletion”. For the same compound, in [2] (sildenafil alone), the tumor outgrowth result is listed as “statistically significant reduction in tumor outgrowth”. Moreover, the “tumor outgrowth, sildenafil without adoptive transfer” value in [3] (sildenafil 20 mg/kg/day in drinking water) is “statistically significant reduction in tumor outgrowth”. In addition, the “anti-tumor efficacy, sildenafil coupled with adoptive immunotherapy (ACT)” value in series [3] (sildenafil 20 mg/kg/day plus 20×10^6 C26GM-primed splenocytes) is “greatest anti-tumor efficacy”. In [4], the “anti-tumor efficacy in immune deficient Rag-/- mice” value is listed as “lack of anti-tumor efficacy” and the tumor outgrowth entry is listed as “significantly delayed tumor outgrowth”. In series [5], the “IL4Rα expression in cultured MSCs” value is “significantly reduced” and the “IFN-γ mediated IL4Rα up-regulation in cultured MSCs” value was “significantly reduced”. Besides, in [5] (listed as Sildenafil), the “IL4Rα expression in cultured MSCs” value is listed as “down-regulates IL4Rα in cultured MSCs” and the “IFN-γ mediated IL4Rα up-regulation in cultured MSCs” value is on record as “prevents IFN-γ mediated IL4Rα up-regulation”. Besides, the “NO production by intratumoral MSCs” value in [6] (NO3-NO2 in supernatant) was “lower NO production”. Besides, the “NOS2 expression in intratumoral MSCs” value in [6] (Western blot) is recorded as “down-regulation of NOS2”. In addition, the “Arg-1 expression and activity in intratumoral MSCs” value in series [6] (Western blot and arginase assay) is recorded as “down-regulated Arg-1”. Also, in series [6] (competitive enzyme immune assay, vs control group), the “intracellular cGMP levels in intratumoral MSCs” value is recorded as “higher intracellular cGMP levels than the control group”. Also, the “intracellular cGMP in the non-MSC population” value in [6] (data not shown) is reported as “No significant differences”. Also, the “IL4Rα expression on intratumoral MSCs” value in series [6] (flow cytometry) is reported as “significantly reduced IL4Rα expression”. Moreover, the “IL-2 production (GFP) by adoptively transferred vaccine-primed CD8+ T cells in the tumor” value in series [7] (BALB/c-IL-2p/GFP splenocytes, sildenafil for 9 days) is “activated in the tumor microenvironment only with PDE5 inhibition”. Further, in series [7] (C26GM, day 9, flow cytometry), the “CD4+ T cell tumor infiltration” value is given as “no increase in CD4^+ T cells”; the “CD8+ T cell tumor infiltration” value is on record as “increase in intratumoral CD8^+ T cell infiltration”; the “activation of tumor-infiltrating CD8+ T cells (CD69 and CD25)” value was “increased the percentage of activated T cells; also recorded: significantly activated the tumor-infiltrating CD8^+ T cells”. Moreover, the “CD8+ T cell tumor infiltration” value in [7] (C26GM, day 9, flow cytometry, listed as Sildenafil) is recorded as “greater CD8^+ tumor infiltration”. In [7] (CT26WT, day 15, sildenafil 20 mg/kg/day, vs untreated controls), the “intratumoral cellular infiltration (hematoxylin-eosin staining)” value was “greater intratumoral cellular infiltration”. Also, the “tumor-infiltrating CD8+ cells specific for AH1 (tetramer positive)” value in [7] (sildenafil-treated group, n=3, untreated 1.19±1.180) is listed as 9.08%±0.905. Further, the “proliferation of isolated CD3+ T cells” value in series [8] (data not shown) was “unable to increase T cell proliferation”. Also, in series [8] (sildenafil 50 μg/ml, 5 days), the “CD4+ and CD8+ proliferation of PBLs from head and neck cancer and multiple myeloma patients” value was “restore CD3/CD28-stimulated proliferation of PBLs; also recorded: significantly restored CD4^+ and CD8^+ proliferation in all the examined patients”; the “proliferation of PBLs from healthy donors” value is listed as “no effect on PBLs from healthy donors”. Moreover, the “proliferation (responsiveness) of HA-specific CD4+ and CD8+ T cells in presence of tumor-derived MSCs” value in [9] (BALB/c, C26GM-derived CD11b+ MSCs) is on record as “almost completely restored”. The “suppression of OVA-specific CD4+ T cells by MSCs from NOS2+/+ mice” value in series [9] (C57Bl/6 NOS2+/+, B16GM melanoma) is listed as “reversed MSC suppression”. For the same compound, the “responsiveness of OVA-specific CD4+ T cells with MSCs from NOS2-/- mice” value in [9] (C57Bl/6 NOS2-/-, B16GM melanoma) was “did not augment T cell responsiveness”. For the same compound, the “T cell function in the groups lacking CD11b cells” value in series [9] (no MSCs added) is on record as “absence of a sildenafil-mediated enhancement in T cell function”.
Consider `CN1CC(=O)N2[C@H](c3ccc4c(c3)OCO4)c3[nH]c4ccccc4c3C[C@@H]2C1=O` [tadalafil], for which, in series [4], the “anti-tumor efficacy in immune deficient Rag-/- mice” value is “lack of anti-tumor efficacy” and the tumor outgrowth entry was “significantly delayed tumor outgrowth”. In addition, in series [10] (po), the “apparent oral clearance (CL/F)” value is reported as 2.48 L/h and the “time of peak plasma concentration post-dose” value was “two”. The mean elimination half-life entry in series [10] is given as “about 17.5 h”.

Values taken from patent US9468643B2, “PDE5 inhibitor compositions and methods for immunotherapy” (The Johns Hopkins University, priority 2005, dated 2016).
